From ChEMBL document CHEMBL1138396, “Constrained azacyclic analogues of the immunomodulatory agent FTY720 as molecular probes for sphingosine 1-phosphate receptors” (Bioorg Med Chem Lett, 2007) come the findings set out here.

Bounds are passed on as bounds.

The target of assay [1] is T1, Sphingosine kinase 2 (Homo sapiens) (UniProt Q9NRA0).
T1 sequence (whole entry): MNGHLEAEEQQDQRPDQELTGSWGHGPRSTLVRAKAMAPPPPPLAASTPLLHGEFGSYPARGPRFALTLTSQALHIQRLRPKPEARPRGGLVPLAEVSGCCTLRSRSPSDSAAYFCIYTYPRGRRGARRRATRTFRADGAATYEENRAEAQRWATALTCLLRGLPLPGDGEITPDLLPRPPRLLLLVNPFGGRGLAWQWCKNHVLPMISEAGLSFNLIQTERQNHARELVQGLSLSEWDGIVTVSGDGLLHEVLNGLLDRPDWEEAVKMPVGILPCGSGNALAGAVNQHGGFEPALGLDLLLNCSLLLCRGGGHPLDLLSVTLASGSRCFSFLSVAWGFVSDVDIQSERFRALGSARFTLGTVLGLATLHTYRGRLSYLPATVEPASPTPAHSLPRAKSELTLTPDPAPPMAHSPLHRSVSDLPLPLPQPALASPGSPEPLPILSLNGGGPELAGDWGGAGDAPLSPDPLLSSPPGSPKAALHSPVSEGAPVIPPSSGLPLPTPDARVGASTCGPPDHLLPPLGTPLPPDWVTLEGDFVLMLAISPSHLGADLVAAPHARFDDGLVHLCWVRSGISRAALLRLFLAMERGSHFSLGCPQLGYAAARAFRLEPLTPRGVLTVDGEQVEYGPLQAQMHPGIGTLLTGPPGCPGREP
Put plainly: Effect on rate of phosphorylation of human recombinant SPHK2 expressed in HEK293 cells. The class given is cell-based.

Assay [2] addresses Sphingosine 1-phosphate receptor 3 (Homo sapiens, UniProt Q99500). Briefly: Activity at human recombinant S1P3 receptor expressed in CHO cells assessed as increase in calcium release by FLIPR assay. The class given is functional, cell-based.
Assay [3] addresses T2, Sphingosine 1-phosphate receptor 4 (Homo sapiens, UniProt O95977).
T2 sequence (O95977 whole entry): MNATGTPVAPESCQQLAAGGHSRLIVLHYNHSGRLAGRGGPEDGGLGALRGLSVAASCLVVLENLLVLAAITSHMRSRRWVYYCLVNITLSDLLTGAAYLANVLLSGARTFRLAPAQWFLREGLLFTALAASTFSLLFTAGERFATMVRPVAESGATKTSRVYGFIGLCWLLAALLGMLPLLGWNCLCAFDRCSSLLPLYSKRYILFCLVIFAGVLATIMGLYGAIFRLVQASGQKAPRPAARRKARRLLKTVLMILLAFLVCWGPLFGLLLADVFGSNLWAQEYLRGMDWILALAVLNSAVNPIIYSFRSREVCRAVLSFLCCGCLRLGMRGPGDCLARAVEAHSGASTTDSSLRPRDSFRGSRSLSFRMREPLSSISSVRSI
Briefly: Activity at human recombinant S1P4 receptor expressed in CHO cells assessed as increase in calcium release by FLIPR assay. The class given is functional, cell-based.

Assay [4] addresses Sphingosine 1-phosphate receptor 5 (Homo sapiens, UniProt Q9H228). Put plainly: Activity at human recombinant S1P5 receptor expressed in CHO cells assessed as increase in calcium release by FLIPR assay. Type of assay: functional, cell-based.
The target of assay [5] is Sphingosine 1-phosphate receptor 1 (Homo sapiens, UniProt P21453). Briefly: Activity at human recombinant S1P1 receptor expressed in CHO cells assessed as increase in calcium release by FLIPR assay. The class given is functional, cell-based.
Sequence of Sphingosine 1-phosphate receptor 1 (P21453 whole entry): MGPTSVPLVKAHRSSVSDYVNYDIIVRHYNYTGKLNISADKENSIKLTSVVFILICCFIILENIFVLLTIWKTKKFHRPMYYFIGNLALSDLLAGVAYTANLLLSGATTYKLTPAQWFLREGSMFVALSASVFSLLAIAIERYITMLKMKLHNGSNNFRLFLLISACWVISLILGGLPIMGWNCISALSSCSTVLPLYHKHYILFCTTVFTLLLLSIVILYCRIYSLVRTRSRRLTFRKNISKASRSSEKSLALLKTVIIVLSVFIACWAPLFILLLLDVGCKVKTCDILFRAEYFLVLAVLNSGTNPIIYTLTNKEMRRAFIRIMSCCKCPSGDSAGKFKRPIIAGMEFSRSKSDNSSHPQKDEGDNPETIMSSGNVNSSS

Sequence of Sphingosine 1-phosphate receptor 3 (Q99500 whole entry): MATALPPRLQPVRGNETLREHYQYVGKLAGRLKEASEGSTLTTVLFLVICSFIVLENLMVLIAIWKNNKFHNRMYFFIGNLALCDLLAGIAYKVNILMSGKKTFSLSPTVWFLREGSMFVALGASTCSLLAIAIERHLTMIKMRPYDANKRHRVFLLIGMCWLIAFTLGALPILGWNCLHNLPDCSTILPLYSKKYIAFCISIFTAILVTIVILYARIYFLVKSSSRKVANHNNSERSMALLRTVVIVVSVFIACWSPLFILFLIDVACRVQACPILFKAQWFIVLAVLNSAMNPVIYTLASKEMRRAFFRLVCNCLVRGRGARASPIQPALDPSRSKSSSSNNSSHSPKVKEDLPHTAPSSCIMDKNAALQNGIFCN
Sequence of Sphingosine 1-phosphate receptor 5 (Q9H228 whole entry): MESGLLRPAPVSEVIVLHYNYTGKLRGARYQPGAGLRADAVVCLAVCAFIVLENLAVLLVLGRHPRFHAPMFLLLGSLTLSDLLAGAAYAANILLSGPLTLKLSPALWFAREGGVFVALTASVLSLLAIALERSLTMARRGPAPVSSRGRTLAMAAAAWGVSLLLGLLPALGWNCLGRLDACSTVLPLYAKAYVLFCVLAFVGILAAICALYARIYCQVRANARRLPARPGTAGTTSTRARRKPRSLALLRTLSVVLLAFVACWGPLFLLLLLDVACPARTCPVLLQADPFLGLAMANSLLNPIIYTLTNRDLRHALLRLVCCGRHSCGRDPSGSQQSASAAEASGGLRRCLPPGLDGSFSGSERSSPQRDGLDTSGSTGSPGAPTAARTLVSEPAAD

With `CCCCCCCCc1ccc([C@@H]2C[C@@H](CO)N[C@H]2CO)cc1`, the Activity in assay [1] is under 0.1%.

For orientation: EC50 means the midpoint of the concentration-response curve. In the case of `CCCCCCCCc1ccc([C@H]2C[C@H](CO)N[C@@H]2COP(=O)(O)O)cc1`, the EC50 in assay [2] is over 1000 nM; in assay [3], 347 nM; in assay [4], 134 nM; in assay [5] it was over 1000 nM.

Consider `CCCCCCCCc1ccc([C@H]2C[C@H](COP(=O)(O)O)N[C@@H]2CO)cc1`, for which the EC50 is over 1000 nM in assay [2], 7.4 nM in assay [3], 10.2 nM in assay [4] and over 1000 nM in assay [5].

On to `CCCCCCCCc1ccc([C@@H]2C[C@@H](COP(=O)(O)O)N[C@H]2CO)cc1`, for which the EC50 in assay [2] is over 1000 nM; in assay [3], 16.8 nM; in assay [4] it was 5.8 nM; in assay [5] it was over 1000 nM.

Regarding `CCCCCCCCCCCCC/C=C/[C@@H](O)[C@@H](N)COP(=O)(O)O`, the results for the EC50 in assay [2], in assay [3] and in assay [5] were 1.6 nM, 7.9 nM and 0.55 nM, respectively.

Regarding `CCCCCCCCc1ccc([C@@H]2C[C@@H](CO)N[C@H]2COP(=O)(O)O)cc1`, the EC50 in assay [2] was over 1000 nM; in assay [3], 33.1 nM; in assay [4] it was 21.3 nM; in assay [5] it was over 1000 nM.

On to `CCCCCCCCCCCCC/C=C/[C@@H](O)[C@@H](N)CO`, for which, in assay [1], the Activity came out at 100%.

With `CCCCCCCCc1ccc(CC[C@@](N)(CO)COP(=O)(O)O)cc1`, in assay [3], the EC50 came out at 18.6 nM.

For `CCCCCCCCc1ccc([C@H]2C[C@H](CO)N[C@@H]2CO)cc1`, the Activity in assay [1] worked out at 55%.

Regarding `CCCCCCCCc1ccc(CCC(N)(CO)CO)cc1`, the Activity in assay [1] stood at 13%.
